Laboratory results from patent US20250281424A1 (New York Blood Center, Inc, priority 2020, published 2025).

Molecular target: T1, human PF4 (Homo sapiens, UniProt P02776)
T1 construct: PF4 is a 70 amino acid, lysine-rich 7.8 kDa platelet-specific protein; made in house; host or cells: Escherichia coli BL21DE3 pLysS (pT7-7) and/or Drosophila S2 cells
T1 sequence (P02776 32-101): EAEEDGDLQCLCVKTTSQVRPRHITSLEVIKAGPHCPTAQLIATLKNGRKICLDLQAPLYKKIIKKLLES
Test: Inhibition of PF4 tetramer formation (BS3 cross-linking, SDS-PAGE)
Assay type: biochemical
Settings: for inhibition at 5 µM: 5 μM inhibitor; for inhibition at 5 µM / inhibition at 10 µM / inhibition at 1 µM / inhibition at 3 µM: read-out: % inhibition of PF4 tetramer formation at single concentration of inhibitor; for inhibition at 10 µM: 10 μM inhibitor (column A); for IC50: read-out: IC50 of PF4 tetramer formation inhibition; for inhibition at 1 µM: 1 μM inhibitor; for inhibition at 3 µM: 3 μM inhibitor (column A)
Outline: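 Monomer, dimer, trimer and tetramer fractions were quantified by densitometry after reducing 12% SDS-PAGE of BS3-cross-linked (0.2 mM, 30 min, room temperature) PF4. Before cross-linking, 10 μg/ml E. coli-expressed human WT PF4 in PBS was exposed to compound for 15 min at 37° C or 60 min at room temperature; controls lacked compound.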

Row | Structure (SMILES) | inhibition at 5 µM [%] | inhibition at 10 µM [%] | IC50 [µM] | inhibition at 1 µM [%] | inhibition at 3 µM [%]
1 | C=C1C[C@@H](C(=O)C2C(=O)c3ccc(C(=O)c4ccc5c(c4)C(=O)C(C(=O)[C@@H]4CC(=C)CN4C(=O)OC(C)(C)C)C5=O)cc3C2=O)N(C(=O)OC(C)(C)C)C1 (stereo partly drawn) [Example 133, tert-butyl (2S)-2-(5-{2-[(2S)-1-[(tert-butoxy)carbonyl]-4-methylidenepyrrolidine-2-carbonyl]-1,3-dioxo-2,3-dihydro-1H-indene-5-carbonyl}-1,3-dioxo-2,3-dihydro-1H-indene-2-carbonyl)-4-methylidenepyrrolidine-1-carboxylate] | 66 | 88 | ~6 | – | –
2 | CC(C)(C)OC(=O)N1CC[C@@H](C(=O)C2C(=O)c3ccc(S(=O)(=O)c4ccc5c(c4)C(=O)C(C(=O)[C@@H]4CCN(C(=O)OC(C)(C)C)C4)C5=O)cc3C2=O)C1 (stereo partly drawn) [Example 376, tert-butyl (3R)-3-[5-({2-[(3R)-1-[(tert-butoxy)carbonyl]pyrrolidine-3-carbonyl]-1,3-dioxo-2,3-dihydro-1H-inden-5-yl}sulfonyl)-1,3-dioxo-2,3-dihydro-1H-indene-2-carbonyl]pyrrolidine-1-carboxylate] | – | – | – | 22 | 62
3 | Cc1cccc(NC(=O)C2C(=O)c3ccc(C(=O)c4ccc5c(c4)C(=O)C(C(=O)Nc4cccc(C)c4)C5=O)cc3C2=O)c1 (stereo not shown) [Example 38, 5,5′-carbonylbis(1,3-dioxo-n-(m-tolyl)-2,3-dihydro-1h-indene-2-carboxamide)] | 74 | 88 | 1.07 | – | –
4 | N[C@H](C(=O)C1C(=O)c2ccc(C(=O)c3ccc4c(c3)C(=O)C(C(=O)[C@@H](N)C3CC3)C4=O)cc2C1=O)C1CC1 (stereo partly drawn) [Example 118, 2-[(2S)-2-amino-2-cyclopropylacetyl]-5-{2-[(2S)-2-amino-2-cyclopropylacetyl]-1,3-dioxo-2,3-dihydro-1H-indene-5-carbonyl}-2,3-dihydro-1H-indene-1,3-dione] | 75 | 94 | 3.4 | – | –
5 | CCOCC(=O)C1C(=O)c2ccc(C(=O)c3ccc4c(c3)C(=O)C(C(=O)COCC)C4=O)cc2C1=O (stereo not shown) [Example 229, 2-(2-ethoxyacetyl)-5-[2-(2-ethoxyacetyl)-1,3-dioxo-2,3-dihydro-1H-indene-5-carbonyl]-2,3-dihydro-1H-indene-1,3-dione] | – | – | – | 43 | 53
6 | Cc1ccccc1NC(=O)C1C(=O)c2ccc(S(=O)(=O)c3ccc4c(c3)C(=O)C(C(=O)Nc3ccccc3C)C4=O)cc2C1=O (stereo not shown) [Example 85, N-(2-methylphenyl)-5-({2-[(2-methylphenyl)carbamoyl]-1,3-dioxo-2,3-dihydro-1H-inden-5-yl}sulfonyl)-1,3-dioxo-2,3-dihydro-1H-indene-2-carboxamide] | – | – | 2.5 | – | –
7 | CC(=O)C1C(=O)c2cc(S(=O)(=O)c3cnc4c(c3)C(=O)C(C(C)=O)C4=O)cnc2C1=O (stereo not shown) [Example 301, 6-acetyl-3-({6-acetyl-5,7-dioxo-5H,6H,7H-cyclopenta[b]pyridin-3-yl}sulfonyl)-5H,6H,7H-cyclopenta[b]pyridine-5,7-dione] | – | – | – | 23 | 30
8 | O=C1c2ccc(Oc3ccc4c(c3)C(=O)C(C(=O)C3CCCC3)C4=O)cc2C(=O)C1C(=O)C1CCCC1 (stereo not shown) [Example 251, 2-cyclopentanecarbonyl-5-[(2-cyclopentanecarbonyl-1,3-dioxo-2,3-dihydro-1H-inden-5-yl)oxy]-2,3-dihydro-1H-indene-1,3-dione] | – | – | 3 | 32 | 45
9 | CC(C)(C)OC(=O)NCCC(=O)C1C(=O)c2ccc(Oc3ccc4c(c3)C(=O)C(C(=O)CCNC(=O)OC(C)(C)C)C4=O)cc2C1=O (stereo not shown) [Example 267, tert-butyl N-[3-(5-{[2-(3-{[(tert-butoxy)carbonyl]amino}propanoyl)-1,3-dioxo-2,3-dihydro-1H-inden-5-yl]oxy}-1,3-dioxo-2,3-dihydro-1H-inden-2-yl)-3-oxopropyl]carbamate] | – | 100 | – | – | –
10 | COCCOCCN(CC(=O)C1C(=O)c2ccc(C(=O)c3ccc4c(c3)C(=O)C(C(=O)CN(CCOCCOC)C(=O)OC(C)(C)C)C4=O)cc2C1=O)C(=O)OC(C)(C)C (stereo not shown) [Example 391, tert-butyl N-[2-(5-{2-[2-(11,11-dimethyl-9-oxo-2,5,10-trioxa-8-azadodecan-8-yl)acetyl]-1,3-dioxo-2,3-dihydro-1H-indene-5-carbonyl}-1,3-dioxo-2,3-dihydro-1H-inden-2-yl)-2-oxoethyl]-N-[2-(2-methoxyethoxy)ethyl]carbamate] | – | – | – | 1 | 6
11 | O=C(c1ccc2c(c1)C(=O)C(C(=O)Cc1ccncc1)C2=O)c1ccc2c(c1)C(=O)C(C(=O)Cc1ccncc1)C2=O (stereo not shown) [Example 239, 5-{1,3-dioxo-2-[2-(pyridin-4-yl)acetyl]-2,3-dihydro-1H-indene-5-carbonyl}-2-[2-(pyridin-4-yl)acetyl]-2,3-dihydro-1H-indene-1,3-dione] | – | – | – | – | 100
12 | CC(C)(C)OC(=O)N1CC[C@H](C(=O)C2C(=O)c3ccc(C(=O)c4ccc5c(c4)C(=O)C(C(=O)[C@H]4CCN(C(=O)OC(C)(C)C)C4)C5=O)cc3C2=O)C1 (stereo partly drawn) [Example 373, tert-butyl (3S)-3-(5-{2-[(3S)-1-[(tert-butoxy)carbonyl]pyrrolidine-3-carbonyl]-1,3-dioxo-2,3-dihydro-1H-indene-5-carbonyl}-1,3-dioxo-2,3-dihydro-1H-indene-2-carbonyl)pyrrolidine-1-carboxylate] | – | – | – | 5 | 3
13 | O=C1c2ccc(Oc3ccc4c(c3)C(=O)C(C(=O)[C@@H]3C[C@H]3C(=O)O)C4=O)cc2C(=O)C1C(=O)[C@@H]1C[C@H]1C(=O)O (stereo partly drawn) [Example 262, (1R,2R)-2-({5-[(2-{[(1R,2R)-2-carboxycyclopropyl](hydroxy)methylidene}-1,3-dioxo-2,3-dihydro-1H-inden-5-yl)oxy]-1,3-dioxo-2,3-dihydro-1H-inden-2-ylidene}(hydroxy)methyl)cyclopropane-1-carboxylic acid] | – | – | 1.33 | 49 | 67
14 | CC(=O)C1C(=O)c2ccc(Oc3ccc4c(c3)C(=O)C(C(C)=O)C4=O)cc2C1=O (stereo not shown) [Example 9, 5-(2-acetyl-2,3-dihydro-1,3-dioxo-1h-inden-6-yloxy)-2-acetyl-2,3-dihydro-1,3-dioxo-1h-indene] | – | – | 52 | – | –
15 | CC1(C)O[C@H]2O[C@@H](/C(O)=C3\C(=O)c4ccc(C(=O)c5ccc6c(c5)C(=O)/C(=C(\O)[C@@H]5O[C@@H]7OC(C)(C)O[C@@H]7[C@H]7OC(C)(C)O[C@@H]75)C6=O)cc4C3=O)[C@H]3OC(C)(C)O[C@@H]3[C@H]2O1 [Example 135, 5-{1,3-dioxo-2-[(1S,2R,6R,8R,9S)-4,4,11,11-tetramethyl-3,5,7,10,12-pentaoxatricyclo[7.3.0.0^2,^6]dodecane-8-carbonyl]-2,3-dihydro-1H-indene-5-carbonyl}-2-[(1S,2R,6R,8R,9S)-4,4,11,11-tetramethyl-3,5,7,10,12-pentaoxatricyclo[7.3.0.0^2,^6]dodecane-8-carbonyl]-2,3-dihydro-1H-indene-1,3-dione] | 79 | 88 | 3.8 | – | –
16 | COc1cc(CCNC(=O)C2C(=O)c3ccc(C(=O)c4ccc5c(c4)C(=O)C(C(=O)NCCc4cc(OC)cc(OC)c4)C5=O)cc3C2=O)cc(OC)c1 (stereo not shown) [Example 100, N-[2-(3,5-dimethoxyphenyl)ethyl]-5-(2-{[2-(3,5-dimethoxyphenyl)ethyl]carbamoyl}-1,3-dioxo-2,3-dihydro-1H-indene-5-carbonyl)-1,3-dioxo-2,3-dihydro-1H-indene-2-carboxamide] | – | – | ~13 | – | –
17 | O=C(c1ccc2c(c1)C(=O)C(C(=O)NCC1CCOC1)C2=O)c1ccc2c(c1)C(=O)C(C(=O)NCC1CCOC1)C2=O (stereo not shown) [Example 363, 5-(1,3-dioxo-2-{[(oxolan-3-yl)methyl]carbamoyl}-2,3-dihydro-1H-indene-5-carbonyl)-1,3-dioxo-N-[(oxolan-3-yl)methyl]-2,3-dihydro-1H-indene-2-carboxamide] | – | – | 3.96 | 29 | 63
18 | CCNC(=O)C1C(=O)c2ccc(C(=O)c3ccc4c(c3)C(=O)C(C(=O)NCC)C4=O)cc2C1=O (stereo not shown) [Example 335, N-ethyl-5-[2-(ethylcarbamoyl)-1,3-dioxo-2,3-dihydro-1H-indene-5-carbonyl]-1,3-dioxo-2,3-dihydro-1H-indene-2-carboxamide] | – | – | – | 23 | 39
19 | O=C(c1ccc2c(c1)C(=O)C(C(=O)Cn1cccn1)C2=O)c1ccc2c(c1)C(=O)C(C(=O)Cn1cccn1)C2=O (stereo not shown) [Example 126, 5-{1,3-dioxo-2-[2-(1H-pyrazol-1-yl)acetyl]-2,3-dihydro-1H-indene-5-carbonyl}-2-[2-(1H-pyrazol-1-yl)acetyl]-2,3-dihydro-1H-indene-1,3-dione] | 88 | 89 | 3.1 | – | –
20 | CC(C)(C)OCC(=O)C1C(=O)c2ccc(C(=O)c3ccc4c(c3)C(=O)C(C(=O)COC(C)(C)C)C4=O)cc2C1=O (stereo not shown) [Example 235, 2-[2-(tert-butoxy)acetyl]-5-{2-[2-(tert-butoxy)acetyl]-1,3-dioxo-2,3-dihydro-1H-indene-5-carbonyl}-2,3-dihydro-1H-indene-1,3-dione] | – | – | – | 11 | 29
